The values that follow come from patent US20180252736A1, “CB2 RECEPTOR INTERNALIZATION” (Arena Pharmaceuticals, Inc., priority 2015, published 2018).

For data set [1], the system named is MIA-induced osteoarthritis in male Sprague Dawley rats. Briefly: Osteoarthritis pain model (MIA). The format is in vivo, rat. The following applies: for in vivo efficacy over time in the osteoarthritis pain model: oral dosing; for time following dosing at which in vivo efficacy was lost / time of peak efficacy following dosing / time following dosing up to which in vivo efficacy was maintained: osteoarthritis pain model. The source says:
Injection of monosodium iodoacetate (MIA) into a joint (J Rheumatol 14:130-1, 1987) inhibits the activity of glyceraldehyde-3-phosphate dehydrogenase in chondrocytes, resulting in disruption of glycolysis and eventually in cell death. The progressive loss of chondrocytes results in histological and morphological changes of the articular cartilage, closely resembling those seen in osteoarthritis patients.
Osteoarthritis was induced in 200 g male Sprague Dawley rats. After brief anesthesia by isoflurane, rats received a single intra-articular injection of MIA (2 mg) (Catalog #19148, Sigma Aldrich, Saint Louis, Mo.) dissolved in 0.9% sterile saline in a 50 μL volume administered through the patella ligament into the joint space of the left knee with a 30 G needle. Following injection, animals were allowed to recover from anesthesia before being returned to the main housing vivarium.
Typically during disease progression, there is an inflammation period of 0-7 days post-intra-articular injection followed by progressive degeneration of the cartilage and subchondral bone from days 14-55. Efficacy studies with a compound described herein took place from day 14 onwards and were performed twice a week with at least three days of wash-out in between each assay. Three different assays can be used to measure pain. Tactile allodynia can be measured via von Frey assay, hind limb paw weight distribution can be monitored using an incapacitance tester (Columbus Instruments, Columbus, Ohio), and hind limb grip strength can be measured using a grip strength meter (Columbus Instruments, Columbus, Ohio). Briefly, the von Frey assay was performed using the standard up/down method with von Frey filaments. Hind paw weight distribution was determined by placing rats in a chamber so that each hind paw rested on a separate force plate of the incapacitance tester. The force exerted by each hind limb (measured in grams) was averaged over a three second period. Three measurements are taken for each rat, and the change in hind paw weight distribution was calculated. Peak hind limb grip force was conducted by recoding the maximum compressive force exerted on the hind limb mesh gauge set on the grip strength meter. During testing, each rat was restrained and the paw of the injected knee was allowed to grip the mesh. The animal was then pulled in an upward motion until their grip was broken. Each rat was tested three times, with the contralateral paw used as a control.
A baseline was established for animals prior to administration of compounds. The MIA-treated groups of rats were then dosed with either vehicle (PEG400, orally), test compound (at 3 mg/kg, 10 mg/kg, and 30 mg/kg, orally), or morphine (3 mg/kg, subcutaneously). The dosing volume was 500 μL. One hour after dosing, von Frey assay, hind limb weight distribution and/or hind limb grip analysis was performed to measure the efficacy of the test compounds.

Data set [2] can be described thus: Plasma concentration in the osteoarthritis pain model studies. The class given is in vivo, rat. The following applies: for course of plasma concentration: during the pain model time course.
Data set [3] has as its target T1, rat CB2 receptor (Rattus norvegicus, UniProt Q9QZN9).
T1 sequence (Q9QZN9 1-360): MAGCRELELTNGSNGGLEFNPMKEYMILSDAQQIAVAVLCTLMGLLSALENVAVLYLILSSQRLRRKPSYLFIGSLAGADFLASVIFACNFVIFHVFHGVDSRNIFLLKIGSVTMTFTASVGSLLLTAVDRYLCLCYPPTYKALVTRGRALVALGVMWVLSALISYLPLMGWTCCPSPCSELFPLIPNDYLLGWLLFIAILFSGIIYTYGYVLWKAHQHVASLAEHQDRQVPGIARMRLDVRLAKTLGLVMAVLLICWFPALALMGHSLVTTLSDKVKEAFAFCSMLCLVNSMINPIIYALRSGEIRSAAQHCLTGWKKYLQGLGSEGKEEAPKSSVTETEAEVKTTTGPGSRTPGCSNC
The experiment in a line: CB2 receptor internalization assay (conventional fluorescence microscopy). Further details: expressed in transfected cells. The class given is cell-based. As to conditions: for receptor internalization: FIG. 10 comparison; for receptor internalization efficacy relative to CP55,940, rat CB2: fluorescence microscopy. As to the method:
(§1) Receptor internalization assays for the CB2 receptor were performed using a high content imaging system (e.g., IN Cell Analyzer, GE Healthcare Life Sciences, Pittsburgh, Pa.), or by conventional fluorescence microscopy with accessory image analysis software.
[…]. On the day of the assay, growth media was removed from the cell plate and replaced with 25 μL pre-warmed RPMI media. Additionally, 25 μL of pre-warmed RPMI media containing a fluorescent nuclear stain (Hoescht 33342 dye (1:500 dilution); Catalog #H-1399, Invitrogen,) and fluorophore-labeled antibody (Alexa-488 anti-HA monoclonal antibody (1:50 dilution); Catalog #A-21287, Invitrogen, Waltham, Mass.) was added to the cell plate. Test compounds or CP55,940 dissolved in DMSO were serially diluted in DMSO and then further diluted in RPMI to achieve 3× concentrations in 0.5% DMSO. Aliquots (25 μL) of diluted test compounds were added to assay plates, which were then incubated in a water bath at 37° C. for 1 hour. Compound containing media was removed at the end of the treatment period by inversion of the plate. The assay plate was washed twice with PBS (150 μL/well) and the cells were then fixed with 2% formaldehyde/PBS solution for 10 minutes at room temperature. Fluorescence microscopy images were captured for each well on the plate (minimum of 6 per well). The internalization of anti-HA antibody-labeled CB2 receptors results in redistribution of fluorescence from the cell surface to intracellular endosomes, which appear as punctate fluorescent granules within the cell. Quantification of receptor internalization was performed by measuring the Alexa-488 anti-HA monoclonal antibody-stained intracellular granule fluorescence intensities normalized per cell number in each well. Dose-response curves were generated using a minimum of 8 different test concentrations and triplicate determinations were made at each test concentration. Assay performance was monitored by inclusion of a standard CB2 reference agonist such as CP55,940 and agonist internalization efficacies were reported relative to that of the reference agonist.

Data set [4] has as its target T2, hCB2 (Homo sapiens, UniProt P34972). The experiment in a line: β-arrestin recruitment assay (PathHunter CHO-K1). Further details: host or cells: PathHunter CHO-K1. The format is cell-based. The following applies: relative to CP55,940. (Arrestin recruitment assays detect the binding of arrestin to an activated receptor.)
The target of data set [5] is T1, rat CB2 receptor. The experiment in a line: β-arrestin recruitment assay (PathHunter CHO-K1). The class given is cell-based. Further details: host or cells: PathHunter CHO-K1. The following applies: relative to CP55,940.
Data set [6] deals with human CB2 receptors. The experiment in a line: CB2 receptor internalization assay (conventional fluorescence microscopy). The format is cell-based. As to the method:
as §1
[…]. On the day of the assay, growth media was removed from the cell plate and replaced with 25 μL pre-warmed RPMI media. Additionally, 25 μL of pre-warmed RPMI media containing a fluorescent nuclear stain (Hoescht 33342 dye (1:500 dilution); Catalog #H-1399, Invitrogen,) and fluorophore-labeled antibody (Alexa-488 anti-HA monoclonal antibody (1:50 dilution); Catalog #A-21287, Invitrogen, Waltham, Mass.) was added to the cell plate. Test compounds or CP55,940 dissolved in DMSO were serially diluted in DMSO and then further diluted in RPMI to achieve 3× concentrations in 0.5% DMSO. […] Fluorescence microscopy images were captured for each well on the plate (minimum of 6 per well). The internalization of anti-HA antibody-labeled CB2 receptors results in redistribution of fluorescence from the cell surface to intracellular endosomes, which appear as punctate fluorescent granules within the cell. Quantification of receptor internalization was performed by measuring the Alexa-488 anti-HA monoclonal antibody-stained intracellular granule fluorescence intensities normalized per cell number in each well. […]

Data set [7] deals with T2, hCB2. As to conditions: cited from earlier work.
Data set [8] addresses CB1 (Homo sapiens, UniProt P21554). As to conditions: read-out: potency in GTP-γS binding assays, CB1 receptor; cited from earlier work.
Data set [9] deals with CB2 receptor over CB1 receptor. The following applies: Eur. Urol. 2010 FIG. 2a; cited from earlier work.

Entries after “also recorded” stand apart in the source; their conditions may differ. Where only a bound is given, the exact number is not on record here.

T2 sequence (P34972 whole entry): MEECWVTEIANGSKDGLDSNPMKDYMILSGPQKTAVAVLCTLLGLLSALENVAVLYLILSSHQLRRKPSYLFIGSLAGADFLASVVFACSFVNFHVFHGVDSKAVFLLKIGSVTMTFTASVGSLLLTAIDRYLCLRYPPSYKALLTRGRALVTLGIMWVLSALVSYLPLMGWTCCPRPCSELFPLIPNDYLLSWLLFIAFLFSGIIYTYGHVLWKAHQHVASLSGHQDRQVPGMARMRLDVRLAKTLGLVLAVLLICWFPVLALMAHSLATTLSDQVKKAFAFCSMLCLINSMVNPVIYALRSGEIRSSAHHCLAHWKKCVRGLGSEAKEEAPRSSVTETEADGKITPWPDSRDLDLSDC
Sequence of CB1 (P21554 whole entry): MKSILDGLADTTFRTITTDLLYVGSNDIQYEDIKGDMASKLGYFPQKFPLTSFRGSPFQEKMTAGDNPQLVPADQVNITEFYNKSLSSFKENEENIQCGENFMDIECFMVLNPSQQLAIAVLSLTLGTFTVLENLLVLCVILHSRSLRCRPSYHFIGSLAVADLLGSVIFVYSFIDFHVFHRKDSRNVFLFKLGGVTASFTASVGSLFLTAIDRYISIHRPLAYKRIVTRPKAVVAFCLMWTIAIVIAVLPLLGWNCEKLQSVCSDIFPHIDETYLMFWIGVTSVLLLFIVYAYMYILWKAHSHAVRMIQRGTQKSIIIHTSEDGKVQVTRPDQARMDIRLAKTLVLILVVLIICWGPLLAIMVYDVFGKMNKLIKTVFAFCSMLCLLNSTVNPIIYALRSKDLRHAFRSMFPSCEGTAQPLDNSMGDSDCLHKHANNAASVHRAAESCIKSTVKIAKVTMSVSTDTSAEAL

Regarding `CC(C)(CO)NC(=O)c1nn(-c2ccc(F)cc2F)c2c1C[C@H]1C[C@@H]21` [Compound 493], in data set [1], the “in vivo efficacy over time in the osteoarthritis pain model” value (from here on “in vivo efficacy over time”) is reported as “rapid loss of in vivo efficacy”; the “time following dosing at which in vivo efficacy was lost” value is “two and four”. Also, the “course of plasma concentration” value in [2] is “high plasma concentrations that did not decline significantly until four hours following dosing”. Further, in data set [3], the “receptor internalization” value is reported as “low receptor internalization” and the “receptor internalization efficacy relative to CP55,940, rat CB2” value came to 58%.
With `CNC(=O)[C@@H](NC(=O)c1nn(-c2c[n+]([O-])ccn2)c2c1C[C@H]1C[C@@H]21)C(C)(C)C` [Compound 704], in data set [1], the “in vivo efficacy over time” value was “rapid loss of in vivo efficacy” and the “time of peak efficacy following dosing” value is on record as “one”. The “course of plasma concentration” value in data set [2] is “increasing plasma concentrations”. Further, the “β-arrestin efficacy compared to CP55,940, human CB2” value in [4] was 106%. Moreover, in data set [5], the “β-arrestin efficacy compared to CP55,940, rat CB2” value turned out to be 88%.
`O=C(NC1(C(F)(F)F)CCC1)c1nn(-c2c[n+]([O-])ccn2)c2c1C[C@@H]1C[C@H]21` [Compound 765]: in [1], the “in vivo efficacy over time” value is “sustained in vivo efficacy” and the “time following dosing up to which in vivo efficacy was maintained” value (shortened to “time following dosing up to which”) is listed as “six”. In addition, the “course of plasma concentration” value in [2] is reported as “decreasing plasma concentrations”. Besides, the “receptor internalization efficacy relative to CP55,940, rat CB2” value in [3] stood at 99%. In [6], the “receptor internalization efficacy relative to CP55,940, human CB2” value is reported as 97%.
As to `CC(CO)(CO)NC(=O)c1nn(-c2cc(C#N)ccn2)c2c1C[C@H]1C[C@@H]21` [Compound 820], in [1], the “in vivo efficacy over time” value is on record as “rapid loss of in vivo efficacy” and the “time of peak efficacy following dosing” value is “one”. Also, the “course of plasma concentration” value in data set [2] is listed as “high plasma concentrations”. In data set [4], the “β-arrestin efficacy compared to CP55,940, human CB2” value is recorded as 82%. Moreover, the “β-arrestin efficacy compared to CP55,940, rat CB2” value in [5] stood at 56%.
Turning to `O=C(N[C@H](CO)C1CCOCC1)c1nn(-c2c[n+]([O-])ccn2)c2c1C[C@H]1C[C@@H]21` [Compound 841], in data set [1], the “in vivo efficacy over time” value is “sustained in vivo efficacy”, the “time following dosing at which in vivo efficacy was lost” value is listed as “six” and the “time following dosing up to which” value is on record as “four”. Also, the “course of plasma concentration” value in data set [2] is recorded as “rapidly declining plasma concentrations; also recorded: decreasing plasma concentrations”. Further, the concentration at 6 h in data set [2] (rat, plasma, oral, when efficacy was lost, read-out: plasma drug levels at the six hour timepoint) is < 3 ng/mL. In data set [3], the “receptor internalization” value was “high receptor internalization” and the “receptor internalization efficacy relative to CP55,940, rat CB2” value was 105%.
Turning to `CC(C)(NC(=O)c1nn(-c2c[n+]([O-])ccn2)c2c1C[C@@H]1C[C@H]21)C(F)(F)F` [Compound 919], in [1], the “in vivo efficacy over time” value is on record as “sustained in vivo efficacy” and the “time following dosing up to which” value is “six”. In data set [2], the “course of plasma concentration” value is “rapidly declining plasma concentrations; also recorded: decreasing plasma concentrations”. Besides, the “receptor internalization efficacy relative to CP55,940, rat CB2” value in data set [3] turned out to be 92%. In addition, the “receptor internalization efficacy relative to CP55,940, human CB2” value in data set [6] is listed as 95%.
As to `CCCCCCC(C)(C)c1cc(O)c(C2CC(=O)[C@H]3C[C@@H]2C3(C)C)c(OC(=O)/C=C/C(=O)O)c1` (some centres unmarked) [cannabinor], the “agonist character at the CB2 receptor upon closer examination of the published data” value in data set [7] (Eur. Urol. 2010 FIG. 2b) was “only a partial agonist”. In data set [7], the “agonist character at the human CB2 receptor as the publication suggests” value is “full agonist” and the “selectivity for the CB2 receptor over the CB1 receptor (GTP-γS)” value is listed as 321 fold. In data set [7] (read-out: potency in GTP-γS binding assays, CB2 receptor), the EC50 was 17.4 nM. For the same compound, the EC50 in data set [8] is 5.59 µM. In addition, in [9], the “selectivity measured in radioligand binding assays” value is “approximately 10 fold”.
